Assay results: patent US10464930B2, “Compositions and methods for treating estrogen-related medical disorders” (THE BOARD OF TRUSTEES OF THE UNIVERSITY OF ILLINOIS, priority 2012, dated 2019)
Where two headings read alike, the source gives them in different places.

Columns and labels:
[1] = biological target: T1, ERα (Homo sapiens, UniProt P03372); test: ER ligand binding by competitive E2 displacement (ERα)
T1 sequence (P03372 1-595): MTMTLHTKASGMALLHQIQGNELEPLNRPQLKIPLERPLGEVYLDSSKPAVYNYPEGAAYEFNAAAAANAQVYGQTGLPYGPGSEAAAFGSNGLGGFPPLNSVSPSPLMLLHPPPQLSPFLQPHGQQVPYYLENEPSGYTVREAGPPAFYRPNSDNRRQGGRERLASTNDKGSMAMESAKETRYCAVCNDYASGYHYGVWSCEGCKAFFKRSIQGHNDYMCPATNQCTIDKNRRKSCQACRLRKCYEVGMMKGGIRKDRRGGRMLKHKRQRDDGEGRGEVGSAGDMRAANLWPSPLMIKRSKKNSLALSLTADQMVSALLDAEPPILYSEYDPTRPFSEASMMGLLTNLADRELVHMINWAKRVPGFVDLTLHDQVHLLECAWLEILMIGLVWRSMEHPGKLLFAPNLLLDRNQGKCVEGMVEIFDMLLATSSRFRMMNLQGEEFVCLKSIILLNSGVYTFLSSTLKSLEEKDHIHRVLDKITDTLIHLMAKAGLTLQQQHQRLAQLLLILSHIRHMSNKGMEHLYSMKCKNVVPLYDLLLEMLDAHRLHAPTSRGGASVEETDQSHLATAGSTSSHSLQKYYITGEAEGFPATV

[2] = tested on: isolated aortic rings; test: Aortic ring relaxation
[3] = tested on: scopolamine- or L-NAME-induced memory deficit; test: Step through passive avoidance (STPA); format: in vivo, mouse; conditions: for reversal of scopolamine-induced memory deficit (STPA latency): 2 mg/kg i.p. 20 min prior to training, scopolamine 1 mg/kg, C57Bl/6, 24 h; for reversal of L-NAME-induced cognitive deficit (STPA) / reversal of scopolamine-induced deficit in eNOS KO mice (STPA): 2 mg/kg; for reversal of L-NAME-induced cognitive deficit (STPA): L-NAME 50 mg/kg 30 min prior to training
[4] = biological target: ERβ (Homo sapiens, UniProt Q92731); test: ER ligand binding by competitive E2 displacement (ERβ)
[5] = tested on: primary cortical neurons exposed to OGD; test: Oxygen glucose deprivation (OGD) neuroprotection, MTT; format: cell-based, rat; conditions: for neuroprotection (cell survival by MTT): 2 h OGD, survival at 24 h, SERMs 100 nM, normalized to E2 10 nM; for neuroprotective activity with GPR30 antagonist: plus G15 (100 nM); for neuroprotective activity with GPR blocker: plus pertussis toxin (100 ng/mL)
[6] = tested on: LTP in the CA1 region of hippocampal sections; test: LTP after theta burst stimulation in hippocampal slices; set-up: species or system mouse; conditions: for end average potentiation of fEPSP (LTP): 30 min prior to TBS, slices of 16-month male 3×Tg mice
Description: LTP was measured after TBS in the CA1 region of hippocampal sections from 16 month male 3×Tg mice or WT controls. Test compounds (SERMs 100 nM; G15 100 nM) were added 30 min prior to TBS. […] (C) Secondary analysis of theta bursts indicate action both during induction and stabilization of LTP, through a GPR30 dependent mechanism.
LTP was measured after TBS in the CA1 region of hippocampal sections from 8 month old male C57Bl/6 mice. G15 (100 nM) was added 30 min prior to TBS and continued throughout. G15 had no effect on LTP, which reached levels equal to WT background in FIG. 2 for both controls and G15.
LTP was measured in the CA1 region of hippocampal sections from 16 month male 3×Tg mice using the method detailed in manuscript, with the exception of a variable interburst interval during TBS. ODQ (10 nM) was added 30 min prior to TBS and continued throughout.
Electrophysiology. All experiments used 16-month old male 3×Tg transgenic or age-matched WT background controls. For electrophysiology, mice were rapidly decapitated, and brains were removed into an ice-cold aCSF solution (in mM: NaCl 124, KCl 3.0, KH2PO4 1.25, NaHCO3 25.7, D-glucose 10, L-ascorbate 2.0, MgSO4 2.5, and CaCl2 3.3) and sectioned on a tissue chopper into 400 um sections. Slices were transported to a 37° C. solution of aCSF, continuously bubbled with 95% O2/5% CO2, and allowed to recover at least 60 min before experimentation. After placement of a stimulation electrode in the Schaffer commissural fibers and recording electrodes with 2 M NaCl solution into the stratum radiatum of the CA1 area, stimulus intensity was set to evoke submaximal fEPSP and continuously monitored at 20 s intervals for at least 15 min to establish a stable baseline. SERMs (100 nM) and G15 (100 nM) were prepared fresh in perfusate and started at least 30 min before LTP induction to reach a new baseline after enhancement of basal synaptic transmission was observed(97). LTP was induced using a theta burst induction protocol by applying 10 bursts of four pulses at 100 Hz with an interburst interval of 200 msec. Resulting fEPSP was monitored at 20 s intervals for […] post TBS.
Long-term potentiation (LTP) in the CA1 field of the hippocampus is a well-studied cellular model for learning and memory. […] At 16 months, an advanced age at which Alzheimer's-like neuropathology is well developed in these animals, studies on LTP have not previously been reported. We observed a robust, reproducible deficit in LTP in these aged transgenic mice, with field excitatory post-synaptic potentials (fEPSP) showing an end average potentiation of 97.0±6.4% of baseline at 45 min post-TBS, compared to 134.7±10.3% observed in the wild type (WT) controls (FIG. 2A,B).
To determine if drugs enhanced LTP by altering physiological responses during LTP induction, such as NMDA receptor-mediated currents or downstream events involved in expression or stabilization, the postsynaptic responses to theta bursts were quantified as previously described (56, 57).

[7] = tested on: NO levels (NOx) in plasma and hippocampus; test: NOx measurement in plasma and CNS by chemiluminescence; format: in vivo, mouse; conditions: 2 mg/kg; for NOx in plasma or hippocampus, eNOS(−/−): eNOS(−/−) animals; for NOx in hippocampus and plasma, WT: one hour after injection, WT mice
Description: Levels of NO were assessed by measuring breakdown products 1 h after i.p. injection of SERMs (2 mg/kg) using chemiluminescence detection.
(§1) CNS Bioavailability & NOX Measurement. All experiments were performed on either male C57B1/6 mice (Charles River Laboratory) or eNOS(−/−) animals. Animals were injected (i.p.) at various time points before sacrifice at the doses specified. After euthanasia via CO2, plasma was collected, and cortices and hippocampi were collected after PBS perfusion and stored at −80° C. Tissue samples were weighed and extracted with methanol. Plasma samples were extracted with cold acetonitrile. Quantitative analysis of drug concentrations in plasma and brain used internal standards spiked into plasma and brain homogenates before liquid extraction with acetonitrile or methanol, and separation and measurement was performed with LC-MS/MS tandem mass spectrometry. The supernatant (deproteinized) was analyzed by chemiluminescence with SIEVERS 280i nitric oxide analyzer.
(§2) Brain and plasma NO levels were assessed by measuring metabolic oxidation products, NO2^− and NO3^− (NOx), using chemiluminescence detection. […] To assess the relative contribution of eNOS, DMA and NO-DMA were administered to eNOS(−/−) animals.

[8] = tested on: clotting cascades (PT, aPTT); test: Anticoagulation: PT and aPTT after i.p. dosing; format: in vivo, mouse; conditions: for anticoagulation with impaired NOS function: 2 mg/kg 1 h prior, L-NAME 50 mg/kg 30 m prior to collection; for PT / aPTT / anticoagulant effect at 3 h: 2 mg/kg i.p.; for PT / aPTT: 1 h
Description: Blood was collected by cardiac puncture and PTT and aPTT were determined 1 or 3 h after i.p. drug administration (2 mg/kg).
Anticoagulation. SERMs were injected (i.p.) 1 h before blood collection, and L-NAME was injected (i.p.) 30 min before blood collection. The mouse was sedated by exposing it to CO2 until unconscious and blood was collected in 4.5 mL BD Vacutainer Glass Evacuated Blood Collection Tubes (with 0.105 M buffered sodium citrate) by cardiac puncture. The blood samples were centrifuged at 300 g for 30 min to separate the plasma from the blood, and then 200 uL of plasma was taken from each sample and the PT and aPTT were measured using an ACL 7000 Coagulation Analyzer. The analyzer injects […] of PT-fibrinogen (lyophilized rabbit brain calcium thromboplastin with stabilizers, polybrene, buffer and preservatives) to 75 μL of plasma sample to measure the PT, and 75 μL of synthAFAX (0.025 M)+100 μL of CaCl2 (0.02 M) were added to 75 μL of plasma to measure aPTT. The analysis was at 37° C. using a photo sensor at λ=671 nm.

[9] = CNS bioavailability by LC-MS/MS; format: in vivo, mouse; conditions: 5 mg/kg i.p., up to 2 h after administration
Description: as §1, §2

[10] = Rattus norvegicus, read-out: EC50 for relaxation

Sequence of ERβ (Q92731 whole entry, species assumed): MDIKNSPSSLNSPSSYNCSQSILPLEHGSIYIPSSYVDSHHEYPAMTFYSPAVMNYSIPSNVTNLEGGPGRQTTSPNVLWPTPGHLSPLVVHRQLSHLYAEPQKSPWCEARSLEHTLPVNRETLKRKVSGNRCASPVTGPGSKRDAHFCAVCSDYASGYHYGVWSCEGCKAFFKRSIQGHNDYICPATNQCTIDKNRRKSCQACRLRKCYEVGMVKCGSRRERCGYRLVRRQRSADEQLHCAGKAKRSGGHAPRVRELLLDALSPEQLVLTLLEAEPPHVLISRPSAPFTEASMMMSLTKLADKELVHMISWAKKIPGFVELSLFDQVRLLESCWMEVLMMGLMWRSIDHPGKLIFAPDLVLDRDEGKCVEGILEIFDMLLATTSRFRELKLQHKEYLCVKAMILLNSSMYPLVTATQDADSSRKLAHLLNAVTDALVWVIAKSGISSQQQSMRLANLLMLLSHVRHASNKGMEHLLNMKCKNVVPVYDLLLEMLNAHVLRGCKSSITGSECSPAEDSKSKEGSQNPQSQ

| SMILES | reversal of scopolamine-induced memory deficit (STPA latency) [3] | EC50 [2, 10] [nM] | efficacy (relaxation) ([2]; intact aortic rings) [%] | neuroprotection (cell survival by MTT) [5] | neuroprotective activity with GPR30 antagonist [5] | neuroprotective activity with GPR blocker [5] | enhancement of subsequent theta bursts during LTP induction ([6]; 100 nM, 3×Tg slices) | end average potentiation of fEPSP (LTP) ([6]; 100 nM) | NOx in plasma or hippocampus, eNOS(−/−) [7] | NOx in hippocampus and plasma, WT [7] | reversal of L-NAME-induced cognitive deficit (STPA) [3] | reversal of scopolamine-induced deficit in eNOS KO mice (STPA) [3] | anticoagulation with impaired NOS function [8] | PT [8] | aPTT [8] | anticoagulant effect at 3 h [8] | also measured |
| --- | --- | --- | --- | --- | --- | --- | --- | --- | --- | --- | --- | --- | --- | --- | --- | --- | --- |
| Oc1ccc2c(Oc3ccc(OCCN4CCCCC4)cc3)c(-c3ccc(F)cc3)sc2c1 [F-DMA] |  |  |  |  |  |  |  |  |  |  |  |  |  |  |  |  | IC50 ([1]; competitive E2 displacement): 17 ± 0.6 nM; EC50 ([2]; read-out: EC50 for relaxation, intact aortic rings, mean, S.D.): 2400 ± 1200 nM |
| O=C(c1ccc(OCCN2CCCCC2)cc1)c1c(-c2ccc(O)cc2)sc2cc(O)ccc12 [raloxifene, Raloxifene] | restored the cognitive deficit | 4000 ± 2900 | ~100 |  |  |  |  |  |  |  |  |  |  |  |  |  |  |
| COc1ccc(-c2sc3cc(O)ccc3c2Oc2ccc(OCCN3CCCCC3)cc2)cc1 [arzoxifene] | restored the cognitive deficit | 3300 ± 2500 |  |  |  |  |  |  |  |  |  |  |  |  |  |  |  |
| O=[N+]([O-])OCCCC1CCN(CCOc2ccc(Oc3c(-c4ccc(O)cc4)sc4cc(O)ccc34)cc2)CC1 [NO-DMA, 3-(1-(2-(4-(6-hydroxy-2-(4-hydroxyphenyl)benzo[b]thiophen-3-yloxy)phenoxy)ethyl)piperidin-4-yl)propyl nitrate] | equivalent restoration of protection to DMA | 130 ± 90 |  | robust neuroprotection identical to DMA | blocked | blocked | augmented | 144.2±5.2 % of baseline | increase NOx significantly | greater than twofold elevation | reversed only by NO-DMA | only NO-DMA showed efficacy | significant anticoagulation compared to control | increased PT, but only NO-DMA reached significance | significantly increased | remained significantly higher than control | IC50 [1]: 21.4 ± 6.7 nM; IC50 [4]: 24.4 ± 9.6 nM; neuroprotection with ERα blockade ([5]; plus ICI 182780 (100 nM), added 45 min prior to OGD): did not block this effect; attenuation of neuroprotective activity by NOS antagonist ([5]; plus L-NAME (100 μM)): ineffective; attenuation of neuroprotective activity by PI3K inhibitor ([5]; plus LY294002 (10 μM)): effective; EC50 ([2]; Rattus norvegicus, read-out: EC50 for relaxation, L-NAME): 1000 ± 540 nM; EC50 ([2]; Rattus norvegicus, read-out: EC50 for relaxation, endothelium-denuded): 900 ± 690 nM; maximal relaxation response ([2]; intact aortic rings): induced maximal relaxation; potency relative to DMA ([2]; intact aortic rings): at least ten-fold increased potency |
| Oc1ccc(-c2sc3cc(O)ccc3c2Oc2ccc(OCCN3CCCCC3)cc2)cc1 [DMA, desmethylarzoxifene] | restored the cognitive deficit | 3500 ± 2500 | ~100 | robust neuroprotection | blocked | blocked | augmented | 144.9±8.7 % of baseline | no effect | greater than twofold elevation | not able to restore cognition | not able to restore cognition | did not persist in the presence of NOS blockade | increased PT | significantly increased | decreased to that of control samples | end fEPSP (LTP) with GPR30 blocker ([6]; DMA 100 nM plus G15 (100 nM), 3×Tg slices): 96.8±7.10%; effect on LTP with ODQ ([6]; plus ODQ (10 nM), 3×Tg slices, preliminary): ODQ blocks effect of DMA; brain regional retention [9]: preferential retention in the hippocampus over the cortex; efficacy after endothelium removal or NOS inhibition ([2]; removal of the endothelium or L-NAME): significant decrease in the efficacy |
| Brc1cc2c(cc1[C@@H]1Nc3ccccc3[C@@H]3C=CC[C@@H]31)OCO2 [Compound G15] |  |  |  |  |  |  |  |  |  |  |  |  |  |  |  |  | effect on LTP in WT slices ([6]; 100 nM, WT C57Bl/6 slices, absence of DMA): no effect |
